This note sets out measurements from patent publication US20250230159A1, “FUSED HETEROCYCLIC COMPOUNDS AS MODULATORS OF RAS SIGNALLING” (Shenzhen Ionova Life Science Co., Ltd., priority 2022, published 2025).

Each structure is given as a SMILES string. Read-outs that look alike come from different tables or passages of the source. Bounds are passed on as bounds.

Experiment [1] addresses KRAS-G12C/SOS1 interaction (Homo sapiens (Human), UniProt Q07889). In words: Protein-Protein Interaction (PPI) assay, SOS1-KRAS binding assay kit (HTRF). The procedure:
This Example illustrates that exemplary compounds of the present invention blockade the interaction of SOS1 to KRAS protein.
The ability of a compound of Formula (I) to block the interaction of SOS1 to KRAS was measured using a SOS1-KRAS binding assay kit (CAT #63ADK000CB16PEG, Cisbio). Utilizing HTRF (Homogeneous Time-resolved Fluorescence) technology, the assay enables simple and rapid characterization of compound and antibody blockers in a high throughput format. The interaction between Tag1-SOS1 and Tag2-KRAS-G12C is detected by using anti-Tag1-Terbium antibody (HTRF donor) and anti-Tag2-XL665 antibody (HTRF acceptor). When the donor and acceptor antibodies are brought into close proximity due to SOS1 and KRAS-G12C binding, excitation of the donor antibody triggers fluorescent resonance energy transfer (FRET) towards the acceptor antibody, which in turn emits specifically at 665 nm. This specific signal is directly proportional to the extent of KRAS-G12C/SOS1 interaction.
The assay was carried according to the manufacturer's instructions. Compounds at an initial concentration of 10 mM in DMSO were first serially diluted on a 384-well plate using assay buffer at a ratio of 1:3 for a total of 9 concentrations with each of a volume of 20 μL. Blank buffer was included as the negative control. The final compound solution was in the buffer solution with 1% DMSO. Then, in each well of a 384-well plate, a solution of 2 μL compound solution, 4 μL tagged SOS1 and KRAS (G12C) protein stocks, respectively, and 10 μM GTP was incubated for 15 min. 10 μL mixture of […] antibody and anti-Tag1-Terbium antibody was introduced to each individual well. After 2 hours incubation at room temperature, fluorescence readout was measured with a Pelkin Elmer multiple plate reader VICTOR Nivo.
Excitation was from over a range of 245-395 nm, and emission from the donor (emission 1) was detected at […] and emission from the acceptor (emission 2) was detected at (606.5-623.5) nm. The HTRF ratio was calculated using the formula: (emission 1 @665 nm/emission 2 @620 nm)×10000. Thus, compounds blocking KRAS-G12C/SOS1 interaction will cause a reduction in HTRF signal ratio. The IC50 values were then calculated with the Graph pad Prism software.
A general note: In TR-FRET formats the signal depends on donor and acceptor labels being close together.

Experiment [2] relates to pERK in Hela cells. In words: Phospho-ERK (p-ERK) assay in Hela cells. Format: cell-based. The settings on record: Homo sapiens, Table 1, 1 hour with compound, β-actin normalized. The procedure:
This Example illustrates that exemplary compounds of the present invention prevent KRas-mediated GTP nucleotide exchange mediated by SOS1 to inhibit KRas activity, thereby inhibiting the generation of the downstream effector pERK.
Hela cells (23,000/w) were seeded in a black clear flat bottom 96-well cell culture plate (Corning, #3904) and incubated at 37° C. overnight. At day 2, cells were dosed with compounds of Formula (I) with a 10 μM starting concentration and serially diluted 3× for a total of 9 concentrations. The cells were incubated for 1 hour with the compounds solubilized in DMSO at 37° C. Cells were immediately fixed by adding 100 μL of 8% formaldehyde to all wells in a fume hood and the plates were incubated for 1 hr at room temperature. The formaldehyde was discarded from the plates and washed 5 times and each time for 5 min with 200 μL of Triton Washing Solution (0.1% Triton in PBS) each time to permeabilize the cells. Cells were then blocked with 150 μL of Odyssey blocking buffer (LI-COR Biosciences #927-50010) at room temperature on a shaker. The blocking buffer was discarded and 50 μL of primary antibodies pERK (cell signaling Technology #4370; Rabbit, 1:500) and β-actin (AF5001; Mouse, 1:2000) diluted in Odyssey blocking buffer was added. The plates were incubated overnight at 4° C. on a shaker.
On day 3, the primary antibody solution was removed. Each plate was washed 5× times with 200 μL of 1×PBST (PBS+0.1% Tween 20) and incubated with 50 μL of secondary antibodies: Anti-Rabbit (LI-COR Biosciences #926-32211) and Anti-Mouse (LI-COR Biosciences #68070) at 1:1000 dilution in Odyssey blocking buffer at room temperature on a shaker for 1 hour (protected from light). The secondary antibody solution as removed and each plate was washed with PBST 5× times. Any liquid remaining was discarded and the plate was imaged using the Licor Odyssey machine according to the manufacturer's instruction, using a set focus length at 3.5 mm and both 800 nm and 700 nm filters. The 3-actin normalized scan values for each well were divided by the average of vehicle wells to get the % of p-ERK inhibition. The IC50 values were then calculated with the Graph pad Prism software. In general, p-ERK IC50 data are in line with the PPI IC50 data.

KRAS-G12C/SOS1 interaction, sequence (Q07889 whole entry, stated change not applied): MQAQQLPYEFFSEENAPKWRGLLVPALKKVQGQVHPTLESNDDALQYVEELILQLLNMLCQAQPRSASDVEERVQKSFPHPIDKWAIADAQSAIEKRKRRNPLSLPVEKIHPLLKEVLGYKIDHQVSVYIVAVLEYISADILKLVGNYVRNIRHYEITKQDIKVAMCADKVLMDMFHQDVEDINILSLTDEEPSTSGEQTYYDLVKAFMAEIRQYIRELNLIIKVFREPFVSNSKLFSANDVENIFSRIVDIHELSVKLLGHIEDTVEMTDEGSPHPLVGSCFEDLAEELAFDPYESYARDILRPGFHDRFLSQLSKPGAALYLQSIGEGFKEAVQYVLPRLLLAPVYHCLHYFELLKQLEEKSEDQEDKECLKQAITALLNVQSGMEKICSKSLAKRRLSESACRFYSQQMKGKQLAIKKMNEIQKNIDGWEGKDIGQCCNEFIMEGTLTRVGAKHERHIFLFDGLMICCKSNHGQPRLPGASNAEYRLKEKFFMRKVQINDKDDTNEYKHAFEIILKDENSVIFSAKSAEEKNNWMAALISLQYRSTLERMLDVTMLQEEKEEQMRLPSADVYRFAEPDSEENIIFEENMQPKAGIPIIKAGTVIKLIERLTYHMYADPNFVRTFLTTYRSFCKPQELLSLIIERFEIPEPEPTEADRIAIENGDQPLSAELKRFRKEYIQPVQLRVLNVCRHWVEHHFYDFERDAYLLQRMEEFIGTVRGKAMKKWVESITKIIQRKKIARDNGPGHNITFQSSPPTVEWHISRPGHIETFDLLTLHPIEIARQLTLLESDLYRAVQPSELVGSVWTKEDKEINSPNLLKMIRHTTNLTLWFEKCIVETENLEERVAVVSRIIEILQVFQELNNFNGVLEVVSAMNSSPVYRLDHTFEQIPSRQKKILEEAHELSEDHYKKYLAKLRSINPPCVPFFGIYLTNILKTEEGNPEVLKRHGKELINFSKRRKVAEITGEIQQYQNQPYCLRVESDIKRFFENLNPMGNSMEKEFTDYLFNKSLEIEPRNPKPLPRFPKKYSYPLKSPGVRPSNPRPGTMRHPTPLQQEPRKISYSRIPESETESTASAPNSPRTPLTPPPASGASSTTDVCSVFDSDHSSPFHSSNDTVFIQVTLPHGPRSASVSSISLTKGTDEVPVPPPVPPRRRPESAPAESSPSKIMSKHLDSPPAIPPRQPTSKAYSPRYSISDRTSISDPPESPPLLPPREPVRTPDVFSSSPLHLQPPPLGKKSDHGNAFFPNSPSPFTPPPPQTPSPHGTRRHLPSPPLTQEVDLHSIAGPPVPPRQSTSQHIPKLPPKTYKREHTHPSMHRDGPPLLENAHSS

Turning to `C[C@@H](Nc1ncnc2c1cc(C(=O)N1CC3(COC3)C1)c1ncnn12)c1cccc(C(F)F)c1F` [Example 42], the IC50 in experiment [1] (read-out: PPI Assay IC50) was less than 100 nM; in experiment [2] it was more than 100 nM.
As for `C[C@@H](Nc1ncnc2c1cc(N1CCOCC1)c1nnnn12)c1cccc(C(F)F)c1F` [Example 98], the IC50 in experiment [1] (read-out: PPI Assay IC50) and in experiment [2] was less than 100 nM each time.
For the compound `Cc1nc(N[C@H](C)c2cccc(C(F)F)c2F)c2cc(N3CCS(=O)(=O)CC3)c3nnnn3c2n1` [Example 93], the concentration for half-maximal inhibition (IC50) in experiment [1] (read-out: PPI Assay IC50) was less than 100 nM; in experiment [2] it was more than 100 nM.
Taken in the same sequence, the figures for `Cc1nc(N[C@H](C)c2cccc(C(F)F)c2F)c2cc(N3CCOCC3)c3nnnn3c2n1` [Example 91, (R)—N-(1-(3-(difluoromethyl)-2-fluorophenyl)ethyl)-8-methyl-4-morpholinotetrazolo[1′,5′:1,6]pyrido[2,3-d]pyrimidin-6-amine] were less than 100 nM and less than 100 nM.
Consider `Cc1nc(N[C@H](C)c2cccc(C(F)F)c2F)c2cc(C(=O)N3CC4(COC4)C3)c3nncn3c2n1` [Example 51], for which the values for the IC50 in experiment [1] (read-out: PPI Assay IC50) and in experiment [2] were less than 100 nM and more than 100 nM, respectively.
On to `CC(=O)N1CCC(F)(c2cc3c(N[C@H](C)c4cccc(C(F)F)c4F)nc(C)nc3n3cnnc23)CC1` [Example 114, (R)-1-(4-(4-((1-(3-(difluoromethyl)-2-fluorophenyl)ethyl)amino)-2-methyl-[1,2,4]triazolo[4′,3′:1,6]pyrido[2,3-d]pyrimidin-6-yl)-4-fluoropiperidin-1-yl)ethan-1-one], for which the IC50 in experiment [1] (read-out: PPI Assay IC50) and in experiment [2] was less than 100 nM in each case.
Consider `COC1(c2cc3c(N[C@H](C)c4cccc(C(F)F)c4F)nc(C)nc3n3cnnc23)CCN(C(C)=O)CC1` [Example 118, (R)-1-(4-(4-((1-(3-(difluoromethyl)-2-fluorophenyl)ethyl)amino)-2-methyl-[1,2,4]triazolo[4′,3′:1,6]pyrido[2,3-d]pyrimidin-6-yl)-4-methoxypiperidin-1-yl)ethan-1-one], for which the IC50 in experiment [1] (read-out: PPI Assay IC50) and in experiment [2] was less than 100 nM in each case.
On to `COC1(c2cc3c(N[C@H](C)c4cccc(C(F)F)c4F)ncnc3n3cnnc23)CCS(=O)(=O)CC1` [Example 121], for which the IC50 in experiment [1] (read-out: PPI Assay IC50) and in experiment [2] was less than 100 nM each time.
As to `Cc1nc(N[C@H](C)c2cccc(C(F)F)c2F)c2cc(C(=O)N3CCSCC3)c3ncnn3c2n1` [Example 17], the results for the IC50 in experiment [1] (read-out: PPI Assay IC50) and in experiment [2] were less than 100 nM and more than 100 nM, respectively.
Regarding `C[C@@H](Nc1ncnc2c1cc(O[C@H]1CCOC1)c1nncn12)c1cccc(C(F)F)c1F` [Example 88], the IC50 in experiment [1] (read-out: PPI Assay IC50) and in experiment [2] was less than 100 nM in each case.
In the case of `CC(=O)N1CCC(c2cc3c(N[C@H](C)c4cccc(C(F)F)c4F)ncnc3n3cnnc23)CC1` [Example 136, (R)-1-(4-(4-((1-(3-(difluoromethyl)-2-fluorophenyl)ethyl)amino)-[1,2,4]triazolo[4′,3′:1,6]pyrido[2,3-d]pyrimidin-6-yl)piperidin-1-yl)ethan-1-one], the half-inhibitory concentration (IC50) is less than 100 nM in experiment [1] (read-out: PPI Assay IC50) and more than 100 nM in experiment [2].
For the compound `Cc1nc(N[C@H](C)c2cccc(C(F)F)c2F)c2cc(C3CCS(=O)(=O)CC3)c3nncn3c2n1` [Example 152], the results for the IC50 in experiment [1] (read-out: PPI Assay IC50) and in experiment [2] were less than 100 nM and more than 100 nM, respectively.
As for `Cc1nc2c(C3(C#N)CC3)cc3c(N[C@H](C)c4cccc(C(F)F)c4F)ncnc3n2n1` [Example 170, (R)-1-(6-((1-(3-(difluoromethyl)-2-fluorophenyl)ethyl)amino)-2-methyl-[1,2,4]triazolo[1′,5′:1,6]pyrido[2,3-d]pyrimidin-4-yl)cyclopropane-1-carbonitrile], the IC50 in experiment [1] (read-out: PPI Assay IC50) and in experiment [2] was less than 100 nM each time.
Take `CC(=O)N1CCC(O)(c2cc3c(N[C@H](C)c4cccc(C(F)F)c4F)ncnc3n3nnnc23)CC1` [Example 113]: the figures for the IC50 in experiment [1] (read-out: PPI Assay IC50) and in experiment [2] were less than 100 nM and more than 100 nM, respectively.
For `C[C@@H](Nc1ncnc2c1cc(C1(C(F)F)CC1)c1nncn12)c1cccc(C(F)F)c1F` [Example 173], the concentration for half-maximal inhibition (IC50) in experiment [1] (read-out: PPI Assay IC50) and in experiment [2] was less than 100 nM throughout.
With `COC1(c2cc3c(N[C@H](C)c4cc(N)cc(C(F)(F)F)c4)ncnc3n3nnnc23)CCN(C(C)=O)CC1` [Example 126], the half-maximal inhibitory concentration (IC50) in experiment [1] (read-out: PPI Assay IC50) was less than 100 nM.
Consider `COCC(=O)N1CCC(c2cc3c(N[C@H](C)c4cccc(C(F)F)c4F)nc(C)nc3n3nnnc23)CC1` [Example 144], for which the IC50 in experiment [1] (read-out: PPI Assay IC50) was less than 100 nM.
In the case of `C[C@@H](Nc1ncnc2c1cc(C(=O)N1C3COCC1C3)c1ncnn12)c1cccc(C(F)F)c1F` [Example 46], the IC50 in experiment [1] (read-out: PPI Assay IC50) is less than 100 nM.
`CC(=O)N1CCC(C)(c2cc3c(N[C@H](C)c4cccc(C(F)F)c4F)ncnc3n3cnnc23)CC1` [Example 128]: in experiment [1] (read-out: PPI Assay IC50), the IC50 was less than 100 nM.
On to `[2H]C([2H])([2H])OC1(c2cc3c(N[C@H](C)c4cccc(C(F)F)c4F)ncnc3n3cnnc23)CCN(C(C)=O)CC1` [Example 133, (R)-1-(4-(4-((1-(3-(difluoromethyl)-2-fluorophenyl)ethyl)amino)-[1,2,4]triazolo[4′,3′:1,6]pyrido[2,3-d]pyrimidin-6-yl)-4-(methoxy-d3)piperidin-1-yl)ethan-1-one], for which the IC50 in experiment [1] (read-out: PPI Assay IC50) is less than 100 nM.
Turning to `CC(=O)N1CC2(CCN2C(=O)c2cc3c(N[C@H](C)c4cccc(C(F)F)c4F)nc(C)nc3n3ncnc23)C1` [Example 30], the IC50 in experiment [1] (read-out: PPI Assay IC50) was less than 100 nM.
Consider `Cc1nc(N[C@H](C)c2cccc(C(F)F)c2F)c2cc([C@H]3CC[C@@H](O)CC3)c3nncn3c2n1` [Example 90-P1, Cis-4-(4-(((R)-1-(3-(difluoromethyl)-2-fluorophenyl)ethyl)amino)-2-methyl-[1,2,4]triazolo[4′,3′:1,6]pyrido[2,3-d]pyrimidin-6-yl)cyclohexan-1-ol], for which the IC50 in experiment [1] (read-out: PPI Assay IC50) was less than 100 nM.
As for `Cc1nc(N[C@H](C)c2cccc(C(F)F)c2F)c2cc(C(=O)N3CC4(CCC4)C3)c3ncnn3c2n1` [Example 28], the IC50 in experiment [1] is more than 100 nM.
In experiment [1], `CC(=O)N1CC=C(c2cc3c(N[C@H](C)c4cccc(C(F)F)c4F)nc(C)nc3n3cnnc23)CC1(C)C` [Example 102] came in with an IC50 of more than 100 nM.
As to `C[C@@H](Nc1ncnc2c1cc(C(=O)N1CCCC13CCOC3)c1ncnn12)c1cccc(C(F)F)c1F` (stereo partly shown) [Example 44], the half-maximal inhibitory concentration (IC50) in experiment [1] (read-out: PPI Assay IC50) is less than 100 nM.
For `Cc1nc(N[C@H](C)c2cccc(C(F)F)c2F)c2cc(C(=O)N3CCC34COC4)c3nnnn3c2n1` [Example 63], in experiment [1] (read-out: PPI Assay IC50), the IC50 was less than 100 nM.
In the case of `Cc1nc(N[C@H](C)c2cccc(C(F)F)c2F)c2cc(C(=O)N3CCCCC3)c3ncnn3c2n1` [Example 16], the IC50 in experiment [1] (read-out: PPI Assay IC50) is less than 100 nM.
`C[C@@H](Nc1ncnc2c1cc(N1CC(C#N)C1)c1nncn12)c1cccc(C(F)F)c1F` [Example 81]: the IC50 in experiment [1] is more than 100 nM.
The compound `Cc1c([C@@H](C)Nc2ncnc3c2cc(N2CCOCC2)c2nncn23)cccc1C(F)(F)F` [Example 83] gave an IC50 in experiment [1] of more than 100 nM.
As for `Cc1nc(N[C@H](C)c2cccc(C(F)F)c2F)c2cc(C(=O)N3CCN(CCS(C)(=O)=O)CC3)c3nnnn3c2n1` [Example 59], the IC50 in experiment [1] (read-out: PPI Assay IC50) was less than 100 nM.
For `C[C@@H](Nc1ncnc2c1cc(NC1CCS(=O)(=O)CC1)c1nncn12)c1cccc(C(F)F)c1F` [Example 89], the IC50 in experiment [1] was more than 100 nM.

The term IC50 denotes the midpoint of a concentration-inhibition curve.
